Measurements reported in patent publication US20210123061A1, “METHODS AND COMPOSITIONS FOR TREATING INFLAMMATORY DISEASE OR DISORDER” (THE BRIGHAM AND WOMEN'S HOSPITAL, INC., priority 2018, published 2021).

Tested on: RXXpS/T, RPS6-pSer235/236, PRAS40-pThr246
Assay: Immunoblot of RXXpS/T motif, RPS6 and PRAS40 phosphorylation in macrophages
Assay type: cell-based, human
Description: FIGS. 6A-6C show phospho-proteomics identified RSK substrates in human PBMC-derived macrophages. (FIG. 6A) Scheme of phospho-proteomics. Human PBMC-derived macrophages were treated with DMSO or BI-D1870 for two hours followed by IFN-γ stimulation for subsequent proteolysis and phospho-peptide enrichment using the anti-RXXpS/T antibody strategy. (FIG. 6B) Cell lysates were subjected to immunoblot analysis with anti-RPS6-pSer235/236, anti-RPS6, anti-PRAS40-pThr246, anti-PRAS40, or anti-Tubulin. N=2 donors. […] The average shortest distance of the same number of randomly selected genes to disease genes was calculated for N=250 realizations in order to compare the average shortest distance value to random expectation. Empirical p-values were calculated based on 100 degree-preserved randomizations of the first neighbor networks.
FIGS. 15A-15C show RXXpS/T pattern in human IFN-γ-stimulated macrophages. (FIG. 15A) Human PBBMC-derived macrophages were treated with DMSO or 10 μM BI-D1870 for 2 hours followed by stimulation with IFN-γ for 1 hour. Cell lysates were subjected to immunoblot analysis with anti-RXXpS/T antibody. (FIG. 15B) Four ellipse Venn diagram showing numbers of detected phospho-peptides in each sample. (FIG. 15C) A flow chart of screening for RSK-substrates in human macrophages. We identified 24 candidates including RPS6 and AKT1S1/PRAS40 as RSK-substrates. […]

CC(C)CCN1c2nc(Nc3cc(F)c(O)c(F)c3)ncc2N(C)C(=O)C1C (centres unmarked) [BI-D1870]
anti-RXXpS/T immunoblot signal intensities (10 μM for 2 hours, then IFN-γ 1 hour): decrease in signal intensities
RPS6-pSer235/236 and PRAS40-pThr246 immunoblot (IFN-γ versus RSK-inhibition, two donors): confirming the changes
